Read-outs that look alike come from different tables or passages of the source.
Assays:
Type in all cases: cell-based
[1] = tested on: NIH/3T3 BTK C481S cells; test: Phosphor-BTK(Y223) assay, adherent cells; settings: read-out: NIH/3T3 BTK-C481S pBTK
Experimental: (§1) The purpose of this assay was to simply, quickly and directly detect the level of endogenous BTK phosphorylation in cells.
(§2) The steps for handling adherent cells were as follows: • 1) NIH/3T3 BTK WT cells (7.5 k/well) and NIH/3T3 BTK C481S cells (10 k/well) were plated in a 96-well plate, respectively, and cultured at 37 °C and 5% CO2 overnight. • 2) A 3-fold final concentration gradient dilution of a compound was prepared, and 50 µL of it was taken and added to 100 µL of cell culture. 0.5% DMSO was used as a positive control for cell growth. • 3) The plate was incubated at 37 °C and 5% CO2 for 0.5 h. • 4) Na3VO4 at a final concentration of 1mM was added, and the plate was incubated at 37 °C and 5% CO2 for 2 hours. • 5) During the incubation, the following reagents were prepared: • 1x added lysis buffer: 3 vol ddH2O + 1 vol 4x lysis buffer + 100x blocking reagent. • p-BTK (Y223) cryptate-antibody and p-BTK (Y223) d2-antibody working solutions: 1 volume of each cryopreserved antibody (stored at - 20 °C) was added to 19 times the volume of assay buffer (stored at 4 °C). • 6) After the incubation was completed, the medium was removed and 50 µL of 1x added lysis buffer was added. The plate was centrifuged at 500 rpm at room temperature for 30 min. • 7) The lysate was mixed well and 16 µL of it was transferred to a 384-well plate. 1 × added lysis buffer was used as a blank control. • 8) 4 µL of pre-mixed working solutions of the two antibodies (cryptate Ab:d2 Ab = 1:1) was added, and the plate was sealed. • 9) The plate was incubated at room temperature overnight. 10) The plate was read at 665nm and 620nm using Biotek cytation3.0 microplate reader, and the ratio of 665/620nm of each well was calculated.
(§3) The IC50 (half-maximal phosphorylation inhibitory concentration) of the phosphorylated BTK Y223 of the compound was obtained using the following nonlinear fitting formula: Y = Bottom + (Top−Bottom)/(1+10^(∧)((LogIC50−X)*HillSlope)) [formula] • X: Log value of the compound concentration • Y: Inhibition rate (% inhibition) • Top: Maximum response • Bottom: Baseline response • HillSlope: Slope of the curve
(§4) The formula for calculating cell phosphorylation inhibition rate (inhibition rate %) was: Inhibition rate% = 1−(eachconcentrationwell-blankwell)/(positivecontrolwell−blankwell) [formula]

[2] = tested on: NIH/3T3 BTK WT cells; test: Phosphor-BTK(Y223) assay, adherent cells; settings: read-out: NIH/3T3 BTK-WT pBTK
Experimental: as §1, §2, §3, §4

[3] = tested on: Ramos cells with BTK WT; test: Phosphor-BTK(Y223) assay, suspended cells; settings: phosphorylated BTK Y223, Ramos cells with BTK WT
Experimental: as §1
The steps for handling suspended cells were as follows: • 1) Ramos cells with BTK WT (2.5 k/well), BTK C481S (2.5 k/well), or BTK T474I (2.5 k/well) were plated in a 96-well plate, respectively. A compound of different concentration gradients was added using Tecan D300e, and the plate was incubated at 37 °C and 5% CO2 for 2 hours. • 2) 8.33 µL of 20 mM Na3VO4 was added to bring the final concentration to 5 mM, and the plate was incubated at 37 °C and 5% CO2 for 3 h. • 3) During the incubation, the following reagents were prepared: • 4x added lysis buffer: 24 vol 4x lysis buffer + 1 vol 25x blocking reagent. • p-BTK (Y223) cryptate-antibody and p-BTK (Y223) d2-antibody working solutions: 1 volume of each cryopreserved antibody (stored at - 20 °C) was added to 38 times the volume of assay buffer (stored at 4 °C), and mixed well. • 4) After the incubation was completed, 11.1 µL of 4x added lysis buffer was directly added. The plate was shaken at 800 rpm at room temperature for 30 min. • 5) The lysate was mixed well and 16 µL of it was transferred to a 384-well plate. 1 × added lysis buffer was used as a blank control. • 6) 4 µL of pre-mixed working solutions of the two antibodies (cryptate Ab:d2 Ab = 1:1) was added, and the plate was sealed. • 7) The plate was incubated at room temperature overnight. • 8) The plate was read at 665nm and 620nm using Biotek cytation3.0 microplate reader, and the ratio of 665/620nm of each well was calculated. Data analysis: IC50 was calculated using GraphPad Prism 7.0 software.
as §3, §4

[4] = Mus musculus, NIH3T3, phosphorylated BTK Y223, NIH/3T3 BTK C481S cells
[5] = Mus musculus, NIH3T3, phosphorylated BTK Y223, NIH/3T3 BTK WT cells
[6] = phosphorylated BTK Y223, NIH/3T3 BTK C481S cells
[7] = phosphorylated BTK Y223, NIH/3T3 BTK WT cells

SMILES	IC50 [1, 4] [nM]	IC50 [2, 5] [nM]	IC50 ([3]; Homo sapiens, Ramos) [nM]	IC50 [1, 6] [nM]	IC50 [2, 7] [nM]	IC50 [3] [nM]
COc1ccc(F)cc1C(=O)NCc1ccc(-c2nc(C(C)C(F)(F)F)cc3[nH]nc(N)c23)cc1 (single isomer, unassigned) [Example 2, N-(4-(3-amino-6-(1,1,1-trifluoropropan-2-yl)-1H-pyrazolo[4,3-c]pyridin-4-yl)benzyl)-5-fluoro-2-methoxybenzamide]	10 to 50	5 to 10	5 to 10	–	–	–
COc1ccc(F)cc1C(=O)NCc1ccc(-c2nc(C(C)C(F)(F)F)cc3[nH]nc(N)c23)cc1 (single isomer, unassigned) [Example 3, N-(4-(3-amino-6-(1,1,1-trifluoropropan-2-yl)-1H-pyrazolo[4,3-c]pyridin-4-yl)benzyl)-5-fluoro-2-methoxybenzamide]	–	–	–	5 to 10	≤ 5	5 to 10
COc1ccc(F)cc1C(=O)NCc1ccc(-c2nc(C(C)C(F)(F)F)c(-c3ccn(C)n3)c3[nH]nc(N)c23)cc1 (single isomer, unassigned) [Example 6-1, N-(4-(3-amino-7-(1-methyl-1H-pyrazol-3-yl)-6-(1,1,1-trifluoropropan-2-yl)-1H-pyrazolo[4,3-c]pyridin-4-yl)benzyl)-5-fluoro-2-methoxybenzamide]	10 to 50	≤ 5	≤ 5	–	–	–
COc1ccc(F)cc1C(=O)NCc1ccc(-c2nc(C(C)C(F)(F)F)c(-c3ccn(C)n3)c3[nH]nc(N)c23)cc1 (single isomer, unassigned) [Example 6-2, N-(4-(3-amino-7-(1-methyl-1H-pyrazol-3-yl)-6-(1,1,1-trifluoropropan-2-yl)-1H-pyrazolo[4,3-c]pyridin-4-yl)benzyl)-5-fluoro-2-methoxybenzamide]	–	–	–	10 to 50	≤ 5	≤ 5
COc1ccc(F)cc1C(=O)NCc1ccc(-c2nc(C(C)C(F)(F)F)c(-c3ncccn3)c3[nH]nc(N)c23)cc1 (single isomer, unassigned) [Example 7-1, N-(4-(3-amino-7-(pyrimidin-2-yl)-6-(1,1,1-trifluoropropan-2-yl)-1H-pyrazolo[4,3-c]pyridin-4-yl)benzyl)-5-fluoro-2-methoxybenzamide]	5 to 10	≤ 5	≤ 5	–	–	–
COc1ccc(F)cc1C(=O)NCc1ccc(-c2nc(C(C)C(F)(F)F)c(-c3ncccn3)c3[nH]nc(N)c23)cc1 (single isomer, unassigned) [Example 7-2, N-(4-(3-amino-7-(pyrimidin-2-yl)-6-(1,1,1-trifluoropropan-2-yl)-1H-pyrazolo[4,3-c]pyridin-4-yl)benzyl)-5-fluoro-2-methoxybenzamide]	–	–	–	5 to 10	≤ 5	5 to 10
COc1ccc(F)cc1C(=O)NCc1ccc(-c2nc(C(C)C(F)(F)F)cc3[nH]nc(N)c23)cc1 (centres unmarked) [Example 1, N-(4-(3-amino-6-(1,1,1-trifluoropropan-2-yl)-1H-pyrazolo[4,3-c]pyridin-4-yl)benzyl)-5-fluoro-2-methoxybenzamide]	10 to 50	10 to 50	–	–	–	–
COc1ccc(F)cc1C(=O)NCc1ccc(-c2nc(C(C)C(F)(F)F)c(-c3ccn(C)n3)c3[nH]nc(N)c23)cc1 (centres unmarked) [Example 6, N-(4-(3-amino-7-(1-methyl-1H-pyrazol-3-yl)-6-(1,1,1-trifluoropropan-2-yl)-1H-pyrazolo[4,3-c]pyridin-4-yl)benzyl)-5-fluoro-2-methoxybenzamide]	5 to 10	≤ 5	≤ 5	–	–	–
COc1ccc(F)cc1C(=O)NCc1ccc(-c2nc(C(C)C(F)(F)F)c(-c3ncccn3)c3[nH]nc(N)c23)cc1 (centres unmarked) [Example 7, N-(4-(3-amino-7-(pyrimidin-2-yl)-6-(1,1,1-trifluoropropan-2-yl)-1H-pyrazolo[4,3-c]pyridin-4-yl)benzyl)-5-fluoro-2-methoxybenzamide]	5 to 10	≤ 5	5 to 10	–	–	–
COc1ccc(F)cc1C(=O)NCc1ccc(-c2nc(C(C)C(F)(F)F)c(-c3cc(C)[nH]n3)c3[nH]nc(N)c23)cc1 (centres unmarked) [Example 9, N-(4-(3-amino-7-(5-methyl-1H-pyrazol-3-yl)-6-(1,1,1-trifluoropropan-2-yl)-1H-pyrazolo[4,3-c]pyridin-4-yl)benzyl)-5-fluoro-2-methoxybenzamide]	10 to 50	5 to 10	5 to 10	–	–	–
COc1ccc(F)cc1C(=O)NCc1ccc(-c2ncc(-c3ccccn3)c3[nH]nc(N)c23)cc1 [Example 15, N-(4-(3-amino-7-(pyridin-2-yl)-1H-pyrazolo[4,3-c]pyridin-4-yl)benzyl)-5-fluoro-2-methoxybenzamide]	5 to 10	≤ 5	5 to 10	–	–	–
COc1ccc(F)cc1C(=O)NCc1ccc(-c2ncc(-c3ncccn3)c3[nH]nc(N)c23)cc1 [Example 17, N-(4-(3-amino-7-(pyrimidin-2-yl)-1H-pyrazolo[4,3-c]pyridin-4-yl)benzyl)-5-fluoro-2-methoxybenzamide]	5 to 10	≤ 5	5 to 10	–	–	–
COc1ccc(F)cc1C(=O)NCc1ccc(-c2ncc(-c3cnccn3)c3[nH]nc(N)c23)cc1 [Example 18, N-(4-(3-amino-7-(pyrazin-2-yl)-1H-pyrazolo[4,3-c]pyridin-4-yl)benzyl)-5-fluoro-2-methoxybenzamide]	10 to 50	≤ 5	10 to 50	–	–	–
COc1ccc(F)cc1C(=O)NCc1ccc(-c2ncc(-c3ccncn3)c3[nH]nc(N)c23)cc1 [Example 19]	5 to 10	≤ 5	5 to 10	–	–	–
COc1ccc(F)cc1C(=O)NCc1ccc(-c2ncc(-c3ccc(F)cn3)c3[nH]nc(N)c23)cc1 [Example 21, N-(4-(3-amino-7-(5-fluoropyridin-2-yl)-1H-pyrazolo[4,3-c]pyridin-4-yl)benzyl)-5-fluoro-2-methoxybenzamide]	≤ 5	≤ 5	≤ 5	–	–	–
COc1ccc(F)cc1C(=O)NCc1ccc(-c2ncc(-c3cnn(C)c3)c3[nH]nc(N)c23)cc1 [Example 22, N-(4-(3-amino-7-(1-methyl-1H-pyrazol-4-yl)-1H-pyrazolo[4,3-c]pyridin-4-yl)benzyl)-5-fluoro-2-oxybenzamide]	> 50	> 50	10 to 50	–	–	–
COc1ccc(F)cc1C(=O)NCc1ccc(-c2ncc(-c3ccn(C)n3)c3[nH]nc(N)c23)cc1 [Example 23, N-(4-(3-amino-7-(1-methyl-1H-pyrazol-3-yl)-1H-pyrazolo[4,3-c]pyridin-4-yl)benzyl)-5-fluoro-2-methoxybenzamide]	≤ 5	≤ 5	≤ 5	–	–	–
COc1ccc(F)cc1C(=O)NCc1ccc(-c2ncc(-c3ccc(C(F)(F)F)cn3)c3[nH]nc(N)c23)cc1 [Example 24, N-(4-(3-amino-7-(5-(trifluoromethyl)pyridin-2-yl)-1H-pyrazolo[4,3-c]pyridin-4-yl)benzyl)-5-fluoro-2-methoxybenzamide]	≤ 5	≤ 5	≤ 5	–	–	–
